Here are results for nine compounds from BindingDB's records for doi:10.1016/S0960-894X(00)80020-7 (1993).

Test [1] deals with Thymidine kinase (Human herpesvirus 1). The experiment in a line: Inhibition of HSV-1 Thymidine kinase.
For test [2] the target is unchanged. Nature of the test: Binding affinity against HSV-1 Thymidine kinase.

A word on the IC50: it is the concentration that gives 50% inhibition. A high value points to a need for much substance. Turning to `Cc1cn([C@H]2C[C@@H](O)[C@H](OCCCc3ccccc3)O2)c(=O)[nH]c1=O` [1-[(2R,4R,5R)-4-Hydroxy-5-(3-phenyl-propoxy)-tetrahydro-furan-2-yl]-5-methyl-1H-pyrimidine-2,4-dione], the IC50 in test [1] is above 50 µM.
Still for that read-out and setting: the same measure for `CCCO[C@H]1O[C@@H](n2cc(C)c(=O)[nH]c2=O)C[C@@H]1O` [1-((2R,4S,5S)-4-Hydroxy-5-propoxy-tetrahydro-furan-2-yl)-5-methyl-1H-pyrimidine-2,4-dione]: above 50 µM.
By Ki is commonly meant the dissociation constant of the complex between target and ligand, obtained from inhibition or displacement. A high value points to weaker binding. Take `Cc1cn([C@H]2C[C@H](O)[C@@H](OCCCc3ccccc3)O2)c(=O)[nH]c1=O` [1-[(2R,4S,5S)-4-Hydroxy-5-(3-phenyl-propoxy)-tetrahydro-furan-2-yl]-5-methyl-1H-pyrimidine-2,4-dione]: half-maximal inhibition in test [1] (IC50) was put at 10 µM. This compound also had an inhibitory constant (Ki) in test [2] of 4.3 µM.
As for `CCO[C@H]1O[C@@H](n2cc(C)c(=O)[nH]c2=O)C[C@@H]1O` [1-((2R,4S,5S)-5-Ethoxy-4-hydroxy-tetrahydro-furan-2-yl)-5-methyl-1H-pyrimidine-2,4-dione], in test [1], the IC50 is 50 µM.
For the compound `C#C[C@H]1O[C@@H](n2cc(C)c(=O)[nH]c2=O)C[C@@H]1O` [1-((2R,4S,5R)-5-Ethynyl-4-hydroxy-tetrahydro-furan-2-yl)-5-methyl-1H-pyrimidine-2,4-dione], in test [1], it took 3 µM to reach half-maximal inhibition (IC50). The compound further showed an inhibition constant (Ki) in test [2] of 2 µM.
In test [1], `CCCO[C@@H]1O[C@@H](n2cc(C)c(=O)[nH]c2=O)C[C@H]1O` [1-((2R,4R,5R)-4-Hydroxy-5-propoxy-tetrahydro-furan-2-yl)-5-methyl-1H-pyrimidine-2,4-dione] gave an IC50 above 50 µM.
Still for that read-out and setting: the same measure for `Cc1cn([C@H]2C[C@H](O)[C@@H](OC(C)(C)C)O2)c(=O)[nH]c1=O` [1-((2R,4S,5S)-5-tert-Butoxy-4-hydroxy-tetrahydro-furan-2-yl)-5-methyl-1H-pyrimidine-2,4-dione]: above 50 µM; for `CCO[C@@H]1O[C@@H](n2cc(C)c(=O)[nH]c2=O)C[C@H]1O` [1-((2R,4R,5R)-5-Ethoxy-4-hydroxy-tetrahydro-furan-2-yl)-5-methyl-1H-pyrimidine-2,4-dione]: above 50 µM; for `Cc1cn([C@H]2C[C@@H](O)[C@H](OC(C)(C)C)O2)c(=O)[nH]c1=O` [1-((2R,4R,5R)-5-tert-Butoxy-4-hydroxy-tetrahydro-furan-2-yl)-5-methyl-1H-pyrimidine-2,4-dione]: above 50 µM.
